Non-standard residues stand in square brackets, D forms with d. Residues, ends and D or L forms follow the SMILES beside them. Ahx = NCCCCCC(=O)O
Test system: S. aureus JAR
Type: cell-based
Settings: JAR, 2 h
Procedure: S. aureus JAR is described in Campoccia et al. (Int. J. Artif. Organs, 2008 September; 31(9):841-7).
For the in vitro killing assay with P10 variants, S. aureus JAR ([…] CFU/ml) were incubated for 2 hours at 37° C. with various concentrations of the peptides in PBS or in PBS/human plasma (1/1, v/v). […] The LC99.9 is the average value of two independent experiments.

Molecule | LC99.9 (μM) (50% plasma) | LC99.9 (μM) (PBS)
CC[C@H](C)[C@H](NC(=O)[C@H](CCCCN)NC(=O)[C@H](CCCCN)NC(=O)[C@H](Cc1ccc(O)cc1)NC(=O)[C@H](CCC(=O)O)NC(=O)[C@@H](CCCNC(=N)N)NC(=O)[C@H](C)NC(=O)[C@H](CC(C)C)NC(C)=O)C(=O)N[C@H](C(=O)N[C@@H](CCC(=O)O)C(=O)N[C@@H](CCCCN)C(=O)N[C@@H](CC(C)C)C(=O)N[C@@H](CCCCN)C(=O)N[C@@H](CCCNC(=N)N)C(=O)N[C@@H](Cc1c[nH]c2ccccc12)C(=O)N[C@@H](CC(C)C)C(=O)N[C@@H](CCCNC(=N)N)C(=O)N[C@@H](CCC(N)=O)C(=O)N[C@H](C(=O)N[C@@H](CC(C)C)C(=O)N[C@@H](CCCNC(=N)N)C(=O)N[C@H](C(=O)N[C@@H](CC(C)C)C(=O)N[C@@H](CCCNC(=N)N)C(N)=O)[C@@H](C)O)C(C)C)C(C)C [Peptide 1301-3, JLArEYKKIVEKLKRWLRQVLRTLRB] (Ac-LA[dR]EYKKIVEKLKRWLRQVLRTLR-NH2) | 38.4 µM | 0.6 µM
Ac-REYKKIVEKLKRWLRQVLRT-NH2 [Peptide 1302-58, JREYKKIVEKLKRWLRQVLRTB] | 76.8 µM | 1.6 µM
CC[C@H](C)[C@H](NC(=O)[C@H](CCCCN)NC(=O)[C@H](CCCCN)NC(=O)[C@H](Cc1ccc(O)cc1)NC(=O)[C@H](CCC(=O)O)NC(=O)[C@H](CCCNC(=N)N)NC(=O)[C@H](C)NC(=O)[C@H](CC(C)C)NC(C)=O)C(=O)N[C@H](C(=O)N[C@@H](CCC(=O)O)C(=O)N[C@@H](CCCCN)C(=O)N[C@@H](CC(C)C)C(=O)N[C@@H](CCCCN)C(=O)N[C@H](CCCNC(=N)N)C(=O)N[C@@H](Cc1c[nH]c2ccccc12)C(=O)N[C@@H](CC(C)C)C(=O)N[C@@H](CCCNC(=N)N)C(=O)N[C@@H](CCC(N)=O)C(=O)N[C@H](C(=O)N[C@@H](CC(C)C)C(=O)N[C@@H](CCCNC(=N)N)C(=O)N[C@H](C(=O)N[C@@H](CC(C)C)C(=O)N[C@@H](CCCNC(=N)N)C(N)=O)[C@@H](C)O)C(C)C)C(C)C [Peptide 1301-14, JLAREYKKIVEKLKrWLRQVLRTLRB] (Ac-LAREYKKIVEKLK[dR]WLRQVLRTLR-NH2) | 38.4 µM | 0.6 µM
Ac-LAREYKKIVEKLKRWLRQVLRNLR-NH2 [Peptide 1302-53, JLAREYKKIVEKLKRWLRQVLRNLRB] | 51.2 µM | 1.6 µM
Ac-LAREYKKIVEKLKRWLRQVLRTLH-NH2 [Peptide 1302-55, JLAREYKKIVEKLKRWLRQVLRTLHB] | 102.4 µM | 1.2 µM
Ac-YKKIVEKLKRWLRQVL-NH2 [Peptide 1302-62, JYKKIVEKLKRWLRQVLB] | 76.8 µM | 1.6 µM
Ac-LAREYPKIVEKLKRWLRPVLRTLR-NH2 [Peptide 1302-14, JLAREYPKIVEKLKRWLRPVLRTLRB] | 102.4 µM | 3.2 µM
Ac-LVREYKKIVEKLKRWLRQVLRTLR-NH2 [Peptide 1302-21, JLVREYKKIVEKLKRWLRQVLRTLRB] | 76.8 µM | 1.2 µM
Ac-IAREYKKIVEKLKRWLRQVLRTLR-NH2 [Peptide 1302-17, JIAREYKKIVEKLKRWLRQVLRTLRB] | 102.4 µM | 1.6 µM
CC[C@H](C)[C@H](NC(=O)[C@H](CCCCN)NC(=O)[C@H](CCCCN)NC(=O)[C@H](Cc1ccc(O)cc1)NC(=O)[C@H](CCC(=O)O)NC(=O)[C@H](CCCNC(=N)N)NC(=O)[C@H](C)NC(=O)[C@H](CC(C)C)NC(C)=O)C(=O)N[C@H](C(=O)N[C@@H](CCC(=O)O)C(=O)N[C@@H](CCCCN)C(=O)N[C@@H](CC(C)C)C(=O)N[C@@H](CCCCN)C(=O)N[C@@H](CCCNC(=N)N)C(=O)N[C@@H](Cc1c[nH]c2ccccc12)C(=O)N[C@@H](CC(C)C)C(=O)N[C@@H](CCCNC(=N)N)C(=O)N[C@@H](CCC(N)=O)C(=O)N[C@@H](C(=O)N[C@@H](CC(C)C)C(=O)N[C@@H](CCCNC(=N)N)C(=O)N[C@H](C(=O)N[C@@H](CC(C)C)C(=O)N[C@@H](CCCNC(=N)N)C(N)=O)[C@@H](C)O)C(C)C)C(C)C [Peptide 1301-19, JLAREYKKIVEKLKRWLRQvLRTLRB] (Ac-LAREYKKIVEKLKRWLRQ[dV]LRTLR-NH2) | 32.0 µM | 0.6 µM
CC[C@H](C)[C@H](NC(=O)[C@H](CCCCN)NC(=O)[C@H](CCCCN)NC(=O)[C@H](Cc1ccc(O)cc1)NC(=O)[C@H](CCC(=O)O)NC(=O)[C@H](CCCNC(=N)N)NC(=O)[C@H](C)NC(=O)[C@H](CC(C)C)NC(C)=O)C(=O)N[C@H](C(=O)N[C@@H](CCC(=O)O)C(=O)N[C@@H](CCCCN)C(=O)N[C@@H](CC(C)C)C(=O)N[C@@H](CCCCN)C(=O)N[C@@H](CCCNC(=N)N)C(=O)N[C@@H](Cc1c[nH]c2ccccc12)C(=O)N[C@@H](CC(C)C)C(=O)N[C@@H](CCCNC(=N)N)C(=O)N[C@@H](CCC(N)=O)C(=O)N[C@H](C(=O)N[C@@H](CC(C)C)C(=O)N[C@@H](CCCNC(=N)N)C(=O)N[C@H](C(=O)N[C@@H](CC(C)C)C(=O)N[C@@H](CCCNC(=N)N)C(=O)NCCCCCC(=O)NCCCCCC(N)=O)[C@@H](C)O)C(C)C)C(C)C [Peptide 1302-4, JLAREYKKIVEKLKRWLRQVLRTLRZZB] (Ac-LAREYKKIVEKLKRWLRQVLRTLR[Ahx][Ahx]-NH2) | 38.4 µM | 0.8 µM
CC[C@H](C)[C@H](NC(=O)[C@H](CCCCN)NC(=O)[C@H](CCCCN)NC(=O)[C@H](Cc1ccc(O)cc1)NC(=O)[C@H](CCC(=O)O)NC(=O)[C@H](CCCNC(=N)N)NC(=O)[C@H](C)NC(=O)[C@H](CC(C)C)NC(C)=O)C(=O)N[C@H](C(=O)N[C@@H](CCC(=O)O)C(=O)N[C@@H](CCCCN)C(=O)N[C@@H](CC(C)C)C(=O)N[C@@H](CCCCN)C(=O)N[C@@H](CCCNC(=N)N)C(=O)N[C@@H](Cc1c[nH]c2ccccc12)C(=O)N[C@@H](CC(C)C)C(=O)N[C@@H](CCCNC(=N)N)C(=O)N[C@@H](CCC(N)=O)C(=O)N[C@H](C(=O)N[C@@H](CC(C)C)C(=O)N[C@H](CCCNC(=N)N)C(=O)N[C@H](C(=O)N[C@@H](CC(C)C)C(=O)N[C@@H](CCCNC(=N)N)C(N)=O)[C@@H](C)O)C(C)C)C(C)C [Peptide 1301-21, JLAREYKKIVEKLKRWLRQVLrTLRB] (Ac-LAREYKKIVEKLKRWLRQVL[dR]TLR-NH2) | 38.4 µM | 0.6 µM
